ChEMBL document CHEMBL1811754, “Sesquiterpene and xanthone derivatives from the sea fan-derived fungus Aspergillus sydowii PSU-F154” (J Nat Prod, 2011)
Activity calls are given as the source filed them. The calls are words filed in the database; no cut-off is given here.

Tested on: Radical scavenging activity
Assay: Antioxidant activity assessed as DPPH radical scavenging activity after 30 mins by spectrophotometry
Format: functional

For `O=C1N[C@@H](Cc2c[nH]c3ccccc23)C(=O)N[C@H]1Cc1ccccc1`, the Activity was “inactive”.
`COC(=O)[C@@H]1c2c(oc3cc(CO)cc(O)c3c2=O)C=C[C@H]1O` was tested, and the IC50 was 17 µM.
For `COC(=O)c1c(O)ccc2oc3cc(CO)cc(O)c3c(=O)c12`, the Activity was “inactive”.
For `C/C(=C\CCC(C)C)c1ccc(CO)cc1O`, the Activity was “inactive”.
For `COC(=O)[C@@]1(O)c2c(oc3cc(C)cc(O)c3c2=O)CC[C@H]1O`, the Activity was “inactive”.
In the case of `COC(=O)c1cccc2oc3cc(C)cc(O)c3c(=O)c12`, the Activity is reported as “inactive”.
With `CO[C@@](C)(CCCC(C)C)c1ccc(C(=O)O)cc1O` the Activity was “inactive”.
In the case of `COC(=O)c1cccc2oc3cc(CO)cc(O)c3c(=O)c12`, the Activity is reported as “inactive”.
`Cc1c(CCC(C)C)oc2cc(C(=O)O)ccc12` was tested, and the Activity was “inactive”.
